Type in all cases: in vivo
The subject of one assay is soybean seeds. Briefly: Root & shoot growth analysis after seed soak, soy. The note with it: for root growth (text summary of Table 20) / shoot growth (Table 20): seed soak; for shoot growth (Table 20): p14a soy at 0.2 μg/ml; for Root (root growth index, percentage increase over untreated control) / Shoot (shoot length, percentage increase over untreated control): soy, 12-14 days. As to the method:
Peptides were tested for biological effects on the allocation of growth resources to the shoot (above ground) and root (below ground). Peptides were dissolved at 0.2, 2, or 5 μg/ml in a total volume of 100 ml deionized water. Corn or soybean seeds were then soaked for one hour in the peptide solution. Untreated control (UTC) plants were soaked in deionized water. Clear plastic 300 ml beverage cups (Solo®, Dart Container Corporation) were prepared for planting by marking the bottom with a cross, dividing the bottom into four equal quadrants. The cups were then filled with Sunshine Mix #1 soil (SunGro Horticulture) sieved to ¼″. 100 ml of water was added to the soil. Treated seeds were then planted by pressing the seed lightly into the top of the soil. The seeds were then covered with an additional 50 ml of loose soil. Seeds were allowed to germinate and grow for 12-14 days.
The length of the shoot was measured as the distance from the soil to the lightly stretched tip of the highest leaf for each plant. […] Stunting was defined as lacking a fully expanded true leaf at time of data collection or having an expanded true leaf judged by eye to be <½ the average leaf area of the treatment group. Generally, 30 seeds were planted per treatment group and 15-25 plants were used for data collection.
Root growth was estimated by counting the number of times that a primary root crosses the quadrant marks on the bottom of the cup. These were often observed along the bottom circumference of the cup, although some were visible along the side of the container and were counted as if crossing a vertical extension of the quadrant line. This number was divided by 4 to produce a root growth index.
Each number indicates the percentage increase over the untreated control values.

For the next assay, the system named is Soy plants. Kind of assay: Growth tests after foliar spray, soy. As to conditions: for growth, dry biomass and fresh mass (text summary of Table 21): foliar spray; for Dry biomass increase (%) / Fresh mass increase (%) / Growth increase (%): soy, 14 days. As to the method:
Soy seeds (or corn seeds, as indicated) were planted in flats with 2 seeds per cell within the flat at a greenhouse facility. The seeds were allowed to germinate and the smaller plant is culled, leaving one plant per cell. Once the first true leaves are fully expanded and the second leaves are beginning to expand, the plants were initially measured for height. This was performed by stretching the highest leaf upward and measuring the distance to the soil. Peptides were dissolved in water at the indicated concentrations (Table 21 below). The plants were then treated with a foliar spray using widely available spray bottles until liquid was dripping from the leaves. Six flats of 14 plants each were treated per condition (peptide or control). Designated untreated control plants were sprayed with water. The plants were allowed to grow for 14 days. The height of the plants was again measured and compared to the original height to quantify growth. Finally, the plants were harvested by removing the shoots (all above-ground material). For some experiments, this was weighed upon harvesting to determine the fresh mass (including water weight). The shoots were then dried at 70° C. for 72 hours, and again weighed to determine dry biomass. Although this method uses a similar measure (growth) as in Example 3 above, the treatment method is different (seed soak vs. foliar spray). As a result, the experimental outcomes may diverge.

Assay [1] deals with tobacco mosaic virus (TMV). Kind of assay: Induction of resistance to tobacco mosaic virus in tobacco. As to conditions: for TMV response / effectiveness against TMV infection (summary of Table 22): foliar spray; for Effectiveness Covered (%) (decline in TMV lesions vs UTC, systemic response) / Effectiveness Uncovered (%) (decline in TMV lesions vs UTC, local response): TMV 3 days post-treatment, scored 3 days after inoculation.

Marks after values point to notes of the source that are not given here.

Data on 18 substances can be found in patent publication US10524472B2, “Elicitor peptides having disrupted hypersensitive response box and use thereof” (Plant Health Care, Inc., priority 2014, dated 2020).

Regarding ANNQDPMQALMQLLEDLV (P14a), in the assay with soybean seeds, the “root growth (text summary of Table 20)” value is listed as “Increased root growth” and the “shoot growth (Table 20)” value is on record as “increased shoot growth”. In addition, in the assay on soybean seeds (seed soak 0.2 μg/ml), the “Root (root growth index, percentage increase over untreated control)” value is recorded as −2.7% and the “Shoot (shoot length, percentage increase over untreated control)” value is recorded as 8.7%*. Also, in the assay on soybean seeds (seed soak 5.0 μg/ml), the “Root (root growth index, percentage increase over untreated control)” value is 10.3%* and the “Shoot (shoot length, percentage increase over untreated control)” value was −3.5%. Also, in the assay on Soy plants, the “growth, dry biomass and fresh mass (text summary of Table 21)” value (shortened to “growth, dry biomass and fresh mass”) was “increases for all 3 measures”. The “growth, dry biomass and fresh mass” value in the assay with Soy plants (listed as p14a) was “increases in growth and dry biomass”. Further, in the assay on Soy plants (foliar spray 0.2 ug/ml), the “Dry biomass increase (%)” value is 12.6%, the “Fresh mass increase (%)” value was 46.8% and the “Growth increase (%)” value is 14.7%. Also, in the assay with Soy plants (foliar spray 2.0 ug/ml), the “Dry biomass increase (%)” value stood at 11.0%, the “Fresh mass increase (%)” value was found to be 57.9% and the “Growth increase (%)” value is listed as 3.4%. In the assay with Soy plants (foliar spray 5.0 ug/ml), the “Dry biomass increase (%)” value is listed as 10.6%, the “Fresh mass increase (%)” value is listed as 83.3% and the “Growth increase (%)” value is reported as 8.9%.
On to QAGPQSANKTGNVDDANNQDPMQALMQLL (P14-dc4), for which the “growth, dry biomass and fresh mass” value with Soy plants is “lose the significant growth, dry biomass, and fresh mass benefits”. Also, in the assay with Soy plants (foliar spray 0.2 ug/ml), the “Dry biomass increase (%)” value is 5.6%, the “Fresh mass increase (%)” value was 7.5% and the “Growth increase (%)” value stood at 2.6%. Further, in the assay on Soy plants (foliar spray 2.0 ug/ml), the “Dry biomass increase (%)” value is listed as −1.6%, the “Fresh mass increase (%)” value was 0.4% and the “Growth increase (%)” value is on record as −4.6%. For the same substance, in the assay on Soy plants (foliar spray 5.0 ug/ml), the “Dry biomass increase (%)” value was −7.6%, the “Fresh mass increase (%)” value is recorded as −15.4% and the “Growth increase (%)” value is on record as −17%. Further, the “TMV response / effectiveness against TMV infection (summary of Table 22)” value (from here on “TMV response / effectiveness”) in assay [1] is given as “reduced effectiveness against TMV infection”. In addition, in assay [1] (spray 10 ug/ml), the “Effectiveness Covered (%) (decline in TMV lesions vs UTC, systemic response)” value (“Effectiveness Covered (%)” below) was 19% and the “Effectiveness Uncovered (%) (decline in TMV lesions vs UTC, local response)” value (shortened to “Effectiveness Uncovered (%)”) came out at 34%.
In the case of SEEEEELEQLLEDLVKLL (P14-32), the “growth, dry biomass and fresh mass” value in the assay on Soy plants is “increases in growth and dry biomass”. In the assay with Soy plants (foliar spray 0.2 ug/ml), the “Dry biomass increase (%)” value worked out at 6.8%, the “Fresh mass increase (%)” value was 2.9% and the “Growth increase (%)” value was found to be 9.5%. Moreover, in the assay on Soy plants (foliar spray 2.0 ug/ml), the “Dry biomass increase (%)” value was 8.2%, the “Fresh mass increase (%)” value was determined as 27.6% and the “Growth increase (%)” value was determined as 1.7%. Further, in the assay on Soy plants (foliar spray 5.0 ug/ml), the “Dry biomass increase (%)” value was 14%, the “Fresh mass increase (%)” value amounted to 33.3% and the “Growth increase (%)” value is 12.5%. Further, in assay [1] (spray 20 ug/ml), the “Effectiveness Covered (%)” value is given as 82* % and the “Effectiveness Uncovered (%)” value is listed as 90* %.
Take SQGISEKQLADQLLSQLIQALLQP (P4-i10A): in assay [1] (spray 10 ug/ml), the “Effectiveness Covered (%)” value stood at 81% and the “Effectiveness Uncovered (%)” value was found to be 92%.
Consider SQGISEKQLDQDLSQLIQALLQP (P4-14S-12D), for which, in the assay with Soy plants (foliar spray 5.0 ug/ml), the “Dry biomass increase (%)” value is on record as −3.6% and the “Growth increase (%)” value is given as −4.2%. Moreover, the “TMV response / effectiveness” value in assay [1] is “produced the best results”. Moreover, in assay [1] (spray 5.0 ug/ml), the “Effectiveness Covered (%)” value is listed as 60* % and the “Effectiveness Uncovered (%)” value is recorded as 61* %.
For the substance SQGISEKQLDQLLASQLIQALLQP (P4-i14A), in assay [1] (spray 10 ug/ml), the “Effectiveness Covered (%)” value is 77% and the “Effectiveness Uncovered (%)” value stood at 75%.
As to SQGISEKQLDQLLSQAIQALLQP (P4-14S-16A), the “TMV response / effectiveness” value in assay [1] is reported as “weaker TMV responses”. In assay [1] (spray 10 ug/ml), the “Effectiveness Covered (%)” value stood at 3% and the “Effectiveness Uncovered (%)” value turned out to be 1%.
Take SQGISEKQLDQLLSQL (P4-116): the “TMV response / effectiveness” value in assay [1] is reported as “reduced effectiveness against TMV infection”. For the same substance, in assay [1] (spray 10 ug/ml), the “Effectiveness Covered (%)” value is on record as 0* % and the “Effectiveness Uncovered (%)” value is reported as 52%.
Take SQGISEKQLDQLLSQLFQALLQP (P4-14S-17F): in assay [1] (spray 10 ug/ml), the “Effectiveness Covered (%)” value is 57% and the “Effectiveness Uncovered (%)” value came out at 94%.
Consider SQGISEKQLDQLLSQLI (P4-111), for which, in assay [1] (spray 10 ug/ml), the “Effectiveness Covered (%)” value came to 65% and the “Effectiveness Uncovered (%)” value was found to be 58%.
For the substance SQGISEKQLDQLLSQLIAQALLQP (P4-i18A), in assay [1] (spray 10 ug/ml), the “Effectiveness Covered (%)” value came to 50% and the “Effectiveness Uncovered (%)” value is 81%.
In the case of SQGISEKQLDQLLSQLIQALDQP (P4-14S-21D), in assay [1] (spray 10 ug/ml), the “Effectiveness Covered (%)” value was 48% and the “Effectiveness Uncovered (%)” value is on record as 49%.
Regarding SQGISEKQLDQLLSQLIQASLQP (P4-14S-20S), the “shoot growth (Table 20)” value in the assay with soybean seeds is “increased shoot growth”. For the same substance, in the assay on soybean seeds (seed soak 5.0 μg/ml), the “Root (root growth index, percentage increase over untreated control)” value is recorded as 2.2% and the “Shoot (shoot length, percentage increase over untreated control)” value is listed as 5.8%*. Also, the “TMV response / effectiveness” value in assay [1] is “weaker TMV responses”. In assay [1] (spray 10 ug/ml), the “Effectiveness Covered (%)” value is listed as −45% and the “Effectiveness Uncovered (%)” value was 59* %.
Regarding SQGISEKQLDQLLSQLIQAVLQP (P4-14S-20V), the “TMV response / effectiveness” value in assay [1] was “weaker TMV responses”. In assay [1] (spray 10 ug/ml), the “Effectiveness Covered (%)” value is on record as −29% and the “Effectiveness Uncovered (%)” value is −26%.
Take “SQGISEKQLDQLLSQLI_ALLQP (SQGISEKQLDQLLSQLIALLQP; P4-d18)”: in assay [1] (spray 10 ug/ml), the “Effectiveness Covered (%)” value was found to be 15% and the “Effectiveness Uncovered (%)” value was determined as 65%.
With SQGISEKQLDQLLSQSIQALLQP (P4-14S-16S), the “root growth (text summary of Table 20)” value in the assay with soybean seeds (listed as P4-14s-16s) is given as “strong shift in resource allocation to root growth”. In the assay on soybean seeds (listed as p4-14s-16s), the “root growth (text summary of Table 20)” value is on record as “Increased root growth”. Also, in the assay on soybean seeds (seed soak 0.2 μg/ml), the “Root (root growth index, percentage increase over untreated control)” value amounted to 28.3% and the “Shoot (shoot length, percentage increase over untreated control)” value is on record as −2.0%. In the assay on soybean seeds (seed soak 2.0 μg/ml), the “Root (root growth index, percentage increase over untreated control)” value is on record as 28.3%* and the “Shoot (shoot length, percentage increase over untreated control)” value is given as −11.3%. In addition, in assay [1] (spray 10 ug/ml), the “Effectiveness Covered (%)” value is recorded as 46% and the “Effectiveness Uncovered (%)” value is 72* %.
With SQGISEKQLDQLLSQVIQALLQP (P4-14S-16V), the “TMV response / effectiveness” value in assay [1] is “produced the best results”. For the same substance, in assay [1] (spray 10 ug/ml), the “Effectiveness Covered (%)” value was 85* % and the “Effectiveness Uncovered (%)” value worked out at 78%.
Regarding “SQGISEKQL_QLL_QLI_ALLQP (SQGISEKQLQLLQLIALLQP; P4-d10,14,18)”, the “TMV response / effectiveness” value in assay [1] is recorded as “moderate reduction in effectiveness against TMV infection”. Further, in assay [1] (spray 10 ug/ml), the “Effectiveness Covered (%)” value turned out to be 37% and the “Effectiveness Uncovered (%)” value was found to be 55%.
